# Values quoted from earlier work as cited in article PMC10386743, “Application of Ligand- and Structure-Based Prediction Models for the Design of Alkylhydrazide-Based HDAC3 Inhibitors as Novel Anti-Cancer Compounds” (Pharmaceuticals, 2023).
# Experiments:
# recombinant human HDAC3 = conditions: recombinant human HDAC3, Boc-Lys(acetyl)-AMC; supplement prints Ref. [50]
# HDAC3 = conditions: for pIC50 HDAC3 (HDAC3 experimental pIC50): newly designed compounds; for activity on HDAC3 (in words): experimentally determined
SMILES,pIC50 HDAC3 (HDAC3 experimental pIC50) (HDAC3),other results
CC/C=N/NC(=O)c1ccc(CNC(=O)c2ccccc2)cc1 [Compound 62],,pIC50 HDAC3 (HDAC3 experimental pIC50) (recombinant human HDAC3): < 5.00
CCCCCCCCCCNNC(=O)c1ccc(CNC(=O)c2ccccc2)cc1 [Compound 63],,pIC50 HDAC3 (HDAC3 experimental pIC50) (recombinant human HDAC3): < 5.00
CCCNNC(=O)c1ccc(-c2ccc(CNC(C)=O)cc2)cc1 [Compound 64],7.04,
CCCCNNC(=O)c1ccc(-c2ccc(CNC(C)=O)cc2)cc1 [Compound 65],6.46,
CCCCCNNC(=O)c1ccc(-c2ccc(CNC(C)=O)cc2)cc1 [Compound 66],5.82,
CCCCCCNNC(=O)c1ccc(-c2ccc(CNC(C)=O)cc2)cc1 [Compound 67],<5.00,
CCCNNC(=O)c1ccc(CNC(C)=O)cc1 [Compound 68],5.80,activity on HDAC3 (in words) (HDAC3): moderate activity
CCCCCCNNC(=O)c1ccc(CNC(C)=O)cc1 [Compound 69],<5.00,activity on HDAC3 (in words) (HDAC3): did not show significant activity
CCCCCCNNC(=O)c1cccc(NCc2ccccc2)c1 [Compound 70],<5.00,activity on HDAC3 (in words) (HDAC3): did not show significant activity
CCCCCCNNC(=O)c1ccc(C)c(NCc2ccccc2)c1 [Compound 71],,HDAC3 inhibition @1 µM (HDAC3): 9%@1 µM; HDAC3 inhibition @10uM (HDAC3): 42%; activity on HDAC3 (in words) (HDAC3): did not show significant activity
CCCNNC(=O)c1cnc(NCc2ccccc2)nc1 [Compound 72],7.37,
CCCCNNC(=O)c1cnc(NCc2ccccc2)nc1 [Compound 73],6.70,
CCCNNC(=O)c1cnc(NCCc2ccccc2)nc1 [Compound 74],,HDAC3 inhibition @1 µM (HDAC3): 41%@1 µM; HDAC3 inhibition @10uM (HDAC3): 87%; activity on HDAC3 (in words) (HDAC3): did not show significant inhibitory activity
CCCNNC(=O)c1cnc(NCc2cccc3ccccc23)nc1 [Compound 75],7.09,
CCCNNC(=O)c1cnc(NCc2ccccc2Cl)nc1 [Compound 76],7.22,
CCCNNC(=O)c1cnc(NCc2ccc(Cl)cc2)nc1 [Compound 77],7.43,
CCCNNC(=O)c1cnc(NCc2cc(Cl)ccc2Cl)nc1 [Compound 78],7.24,

# Further lines, with some results ahead:
pIC50 HDAC3 (HDAC3 experimental pIC50) (HDAC3),SMILES,other results
6.92,CCCNNC(=O)c1cnc(N2CCN(C)CC2)nc1 [Compound 79],
6.96,CCCNNC(=O)c1cnc(NCc2ccc(CNC(C)=O)cc2)nc1 [Compound 80],
<5.00,CCCCCCNNC(=O)c1cnc(NCc2cccc3ccccc23)nc1 [Compound 81],
<5.00,CCCCCCNNC(=O)c1cnc(NCCc2ccccc2)nc1 [Compound 82],
5.52,CCCCCCNNC(=O)c1cnc(NCc2ccccc2)nc1 [Compound 83],
<5.00,CCCCCCNNC(=O)c1cnc(NCc2ccc(CNC(C)=O)cc2)nc1 [Compound 84],
7.52,CCCNNC(=O)c1cnc(N2CCN(Cc3c[nH]c4ccccc34)CC2)nc1 [Compound 85],
7.00,CCCCCCNNC(=O)c1cnc(N2CCN(Cc3c[nH]c4ccccc34)CC2)nc1 [Compound 86],
6.52,CCCCCCNNC(=O)c1cnc(N2CCN(Cc3cn(C)c4ccccc34)CC2)nc1 [Compound 87],
6.00,CCCCCCNNC(=O)c1cnc(N2CCN(CCc3c[nH]c4ccccc34)CC2)nc1 [Compound 88],
5.85,CCCCCCNNC(=O)c1cnc(N2CCN(CCc3cn(C)c4ccccc34)CC2)nc1 [Compound 89],
